The text below walks through data of patent US11236129B2, “IL-17A binding peptides and medical uses thereof” (Dompe' Farmaceutici S.P.A., priority 2018, dated 2022).

A word on the solubility: it is the concentration that dissolves in the medium under given conditions. A lower solubility goes with little dissolved substance. In general, logP refers to the decadic logarithm of the partition coefficient of the neutral form, usually between octanol and water.

Data set [1] is classed as physicochemical. To be noted: pH 7.8. The procedure: Each lyophilized peptide was weighed in an amber vial. A calculated volume of phosphate buffered solution at pH 7.8 was added in order to directly obtain 10 mM Stock Solutions. The recovered suspensions were stirred for 30 minutes by orbital shaker incubator at 37° C. Subsequent dilutions were performed to obtain the more diluted stock solutions for the less soluble compounds.
In order to evaluate the stability and the solubility, all the stock solutions were stored at 25° C. The title was evaluated by UHPLC-MS analysis in comparison with the standard solutions, at 3 time points: T0, 3 days, 1 week.
The chromatographic profile was evaluated for the quantitative assay while the MS spectra were detected as support in the stability studies.
Each peptide was weighed and directly diluted at 100 μM with the phosphate buffer at pH 7.8. The solutions were stirred for 5 minutes by vortex and heated at 37° C. for 20 minutes. The obtained standard solution was stored at 25° C. in the dark under controlled temperature.
A portion of the stock solutions was collected in an amber vial and diluted to 100 μM by phosphate buffer at pH 7.8 (dilution factor, 1:100).
Reversed-phase UHPLC was performed operating at a flow rate of 0.3 ml/min with a Luna Omega Polar C18 column ([…] 1.6 μm, 2.1×100 mm). Solvent A was 0.5% Formic Acid in water and solvent B was 0.5% Formic Acid in acetonitrile. First, samples were loaded onto the column and washed isocratically at 10% B for 3 min. Then, a gradient of 10-95% B was run over 22 min, held at 95% for 2 min, and then decreased to 10% over 1 min and held, for the pressure stabilization, for 5 min. UV Absorption was monitored by DAD (220-400 nm). ESI-MS ion trap was used for the monitoring of TIC.

The nature of data set [2]: Isoelectric point, log D and log P (SiriusT3). The format is physicochemical. To be noted: for IP (isoelectric point): 25±1° C., 0.15 M KCl. As for the experimental part: The main physicochemical properties (Isoelectric point (IP), log D (7.4) and log P) of the peptides of Table 8 below were determined by using the SiriusT3 apparatus (Sirius Analytical Instruments Ltd., East Sussex, UK) equipped with an Ag/AgCl double junction reference pH electrode, a Sirius D-PAS spectrometer and a turbidity sensing device. […] An overhead stirrer was used and a temperature probe (Peltier controller) monitored the temperature during the course of the titration. The titration experiments were conducted in 0.15 M KCl Ionic Strength Adjusted solution (ISA water) under a nitrogen atmosphere at a temperature of 25±1° C. All tests were performed using standardized 0.5 M KOH and 0.5 M HCl as titration reagents, for the partition coefficient tests a saturated Octanol in ISA water (5% of ISA water) was used as partition solvent. The pKas were determined by potentiometric method by pH-metric titration. The powder (around 0.5 mg) was dissolved in 1.5 ml of ISA water and the titration was performed in triplicate in the pH range 2.0−12.0.

In data set [3] the target is IL-17RA/IL17RC dimerization induced by IL-17A (Homo sapiens, UniProt Q16552). The data set can be described thus: IL-17RA/IL17RC dimerization assay in response to IL-17A (PathHunter Cytokine Receptor Assay). The class given is cell-based. Particulars: IL-17A at EC80; read-out: IC50 in IL-17RA/IL7RC dimerization assay. A digest of the protocol:
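PathHunter cells with IL-17RA and IL-17RC tagged for β-galactosidase complementation were preincubated 60 min with peptide (1% vehicle). IL-17A was then added at EC80 for 6–16 h at 37 °C, and chemiluminescence was read. Inhibition is relative to the EC80 and vehicle controls.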

Setting [4] is: octanol/ISA water, read-out: logP.
The mark [5] stands for this setting: pH 7.4, pH 7.4, octanol/ISA water, read-out: Log D (7.4).

pIC50: −log10 of the molar value. Read-outs that look alike come from different tables or passages of the source. Residues, ends and D or L forms follow the SMILES beside them. Some results are limits rather than exact numbers.

Sequence of IL-17RA/IL17RC dimerization induced by IL-17A (Q16552 24-155): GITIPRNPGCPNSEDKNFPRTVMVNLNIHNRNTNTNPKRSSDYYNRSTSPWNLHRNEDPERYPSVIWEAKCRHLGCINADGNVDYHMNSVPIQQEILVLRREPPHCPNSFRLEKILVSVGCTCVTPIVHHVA

The compound `CC(=O)N[C@@H](CC(=O)O)C(=O)N[C@@H](CC(C)C)C(=O)N[C@@H](CO)C(=O)N[C@@H](C)C(=O)N[C@H](C(=O)N[C@H]1CSSC[C@@H](C(=O)N[C@@H](Cc2c[nH]cn2)C(N)=O)NC(=O)[C@H](CCC(=O)O)NC(=O)[C@@H]2CCCN2C(=O)[C@H](CC(=O)O)NC(=O)[C@H](Cc2c[nH]c3ccccc23)NC(=O)[C@@H]2CCCN2C(=O)[C@H](Cc2ccccc2)NC(=O)[C@H](C)NC(=O)[C@H](Cc2c[nH]c3ccccc23)NC1=O)C(C)C` [SEQ ID NO: 41] yielded a solubility in data set [1] of over 10 mM. Further, the “IP (isoelectric point)” value in data set [2] was 3.54. Moreover, the logP in data set [2] (setting [4]) is 1.24. The logD in data set [2] (setting [5]) is -1.94. Moreover, the pIC50 in data set [3] is over 6.00.

In data set [1], `CC[C@H](C)[C@H](NC(=O)[C@H](Cc1c[nH]c2ccccc12)NC(=O)[C@H](CCC(=O)O)NC(=O)[C@H](Cc1ccc(O)cc1)NC(=O)[C@H](CC(C)C)NC(=O)[C@H](CC(=O)O)NC(=O)[C@H](C)NC(=O)[C@@H]1CCCN1C(=O)[C@@H](NC(=O)[C@@H](NC(=O)[C@@H](NC(=O)[C@H](CCSC)NC(=O)[C@@H](NC(=O)CNC(=O)[C@H](C)NC(=O)CNC(=O)[C@@H]1CCCN1C(=O)[C@@H](NC(C)=O)C(C)C)C(C)C)C(C)C)[C@@H](C)O)[C@@H](C)CC)C(=O)N[C@@H](CCC(=O)O)C(=O)N[C@@H](CCC(=O)O)C(N)=O` [SEQ ID NO: 35] (Ac-VPGAGVMVTIPADLYEWIEE-NH2) came in with a solubility of over 10 mM. In addition, in data set [2], the “IP (isoelectric point)” value was determined as 5.14. Moreover, the logP in data set [2] (setting [4]) is -5.43. For the same compound, the logD in data set [2] (setting [5]) was -3.52. Further, the pIC50 in data set [3] was over 6.00.

On to `CC[C@H](C)[C@H](NC(=O)[C@H](Cc1c[nH]c2ccccc12)NC(=O)[C@H](CCC(=O)O)NC(=O)[C@H](Cc1ccc(O)cc1)NC(=O)[C@H](CC(C)C)NC(=O)[C@H](CC(=O)O)NC(=O)[C@H](C)NC(=O)[C@@H]1CCCN1C(=O)[C@@H](NC(=O)[C@@H](NC(=O)[C@@H](NC(=O)[C@H](CCSC)NC(=O)[C@@H](NC(=O)[C@H](CCC(N)=O)NC(=O)[C@H](CO)NC(=O)[C@H](Cc1c[nH]c2ccccc12)NC(=O)[C@H](CCC(=O)O)NC(=O)[C@@H](NC(=O)[C@H](Cc1c[nH]c2ccccc12)NC(=O)[C@H](Cc1c[nH]c2ccccc12)NC(=O)[C@@H](NC(=O)CNC(=O)CNC(C)=O)[C@@H](C)O)[C@@H](C)O)C(C)C)C(C)C)[C@@H](C)O)[C@@H](C)CC)C(=O)N[C@@H](CCC(=O)O)C(=O)N[C@@H](CCC(=O)O)C(N)=O` [SEQ ID NO: 32] (Ac-GGTWWTEWSQVMVTIPADLYEWIEE-NH2), for which the solubility in data set [1] was under 0.05 mM. In addition, the logD in data set [2] (setting [5]) was -3.59. In addition, the pIC50 in data set [3] was over 6.00.

Take `CC[C@H](C)[C@H](NC(=O)[C@H](Cc1c[nH]c2ccccc12)NC(=O)[C@H](CCC(=O)O)NC(=O)[C@H](Cc1ccc(O)cc1)NC(=O)[C@H](CC(C)C)NC(=O)[C@H](CC(=O)O)NC(=O)[C@H](C)NC(=O)[C@@H]1CCCN1C(=O)[C@@H](NC(=O)[C@@H](NC(=O)[C@@H](NC(=O)[C@H](CCSC)NC(=O)[C@@H](NC(=O)[C@H](CCCNC(=N)N)NC(=O)[C@H](CCCNC(=N)N)NC(=O)[C@H](CCCNC(=N)N)NC(=O)[C@H](CCCNC(=N)N)NC(=O)[C@H](CCCNC(=N)N)NC(=O)[C@H](CCCNC(=N)N)NC(=O)[C@H](CCCNC(=N)N)NC(=O)[C@H](CCCNC(=N)N)NC(C)=O)C(C)C)C(C)C)[C@@H](C)O)[C@@H](C)CC)C(=O)N[C@@H](CCC(=O)O)C(=O)N[C@@H](CCC(=O)O)C(N)=O` [SEQ ID NO: 29] (Ac-RRRRRRRRVMVTIPADLYEWIEE-NH2): in data set [1], the solubility is over 10 mM. The “IP (isoelectric point)” value in data set [2] amounted to 12.25. Further, in data set [3], the pIC50 is over 6.00.

As for `CC[C@H](C)[C@H](NC(=O)[C@H](Cc1c[nH]c2ccccc12)NC(=O)[C@H](CCC(=O)O)NC(=O)[C@H](Cc1ccc(O)cc1)NC(=O)[C@H](CC(C)C)NC(=O)[C@H](CC(=O)O)NC(=O)[C@H](C)NC(=O)[C@@H]1CCCN1C(=O)[C@@H](NC(=O)[C@@H](NC(=O)[C@@H](NC(=O)[C@H](CCSC)NC(=O)[C@@H](NC(C)=O)C(C)C)C(C)C)[C@@H](C)O)[C@@H](C)CC)C(=O)N[C@@H](CCC(=O)O)C(=O)N[C@@H](CCC(=O)O)C(=O)N[C@@H](CCCNC(=N)N)C(=O)N[C@@H](CCC(N)=O)C(=O)N[C@H](C(=O)N[C@@H](CCCCN)C(=O)N[C@H](C(=O)N[C@@H](Cc1c[nH]c2ccccc12)C(=O)N[C@@H](Cc1ccccc1)C(=O)N[C@@H](CCC(N)=O)C(=O)N[C@@H](CC(N)=O)C(=O)N[C@@H](CCCNC(=N)N)C(=O)N[C@@H](CCCNC(=N)N)C(=O)N[C@@H](CCSC)C(=O)N[C@@H](CCCCN)C(=O)N[C@@H](Cc1c[nH]c2ccccc12)C(=O)N[C@@H](CCCCN)C(=O)N[C@@H](CCCCN)C(N)=O)[C@@H](C)CC)[C@@H](C)CC` [SEQ ID NO: 28] (Ac-VMVTIPADLYEWIEERQIKIWFQNRRMKWKK-NH2), the solubility in data set [1] is at least 0.1 mM. Further, in data set [2], the logP is recorded as −6.36 and the “IP (isoelectric point)” value stood at 12.25. Also, the “Log D (7.4)” value in data set [2] (pH 7.4) is on record as −6.44. Moreover, the pIC50 in data set [3] is over 6.00.

`CC[C@H](C)[C@H](NC(=O)[C@H](Cc1c[nH]c2ccccc12)NC(=O)[C@H](CCC(=O)O)NC(=O)[C@H](Cc1ccc(O)cc1)NC(=O)[C@H](CC(C)C)NC(=O)[C@H](CC(=O)O)NC(=O)[C@H](C)NC(=O)[C@@H]1CCCN1C(=O)[C@@H](NC(=O)[C@@H](NC(=O)[C@@H](NC(=O)[C@H](CCSC)NC(=O)[C@@H](NC(C)=O)C(C)C)C(C)C)[C@@H](C)O)[C@@H](C)CC)C(=O)N[C@@H](CCC(=O)O)C(=O)N[C@@H](CCC(=O)O)C(=O)N[C@@H](CCCNC(=N)N)C(=O)N[C@@H](CCCNC(=N)N)C(=O)N[C@@H](CCCNC(=N)N)C(N)=O` [SEQ ID NO: 20] (Ac-VMVTIPADLYEWIEERRR-NH2) registered a solubility in data set [1] of at least 0.1 mM. Moreover, in data set [2], the “IP (isoelectric point)” value amounted to 11.29. The logD in data set [2] (setting [5]) was -3.69. Besides, the pIC50 in data set [3] was over 6.00.

In data set [1], `CC[C@H](C)[C@H](NC(C)=O)C(=O)N[C@@H](Cc1c[nH]cn1)C(=O)N[C@H](C(=O)N[C@H](C(=O)N[C@H](C(=O)N1CCC[C@H]1C(=O)N[C@@H](C)C(=O)N[C@@H](CC(=O)O)C(=O)N[C@@H](CC(C)C)C(=O)N[C@@H](Cc1c[nH]c2ccccc12)C(=O)N[C@@H](CC(=O)O)C(=O)N[C@@H](Cc1c[nH]c2ccccc12)C(=O)N[C@H](C(=O)N[C@@H](CC(N)=O)C(=O)N[C@@H](CCCCN)C(N)=O)C(C)C)[C@@H](C)CC)[C@@H](C)O)C(C)C` [SEQ ID NO: 8] (Ac-IHVTIPADLWDWVNK-NH2) showed a solubility of over 10 mM. Moreover, the “IP (isoelectric point)” value in data set [2] is recorded as 5.14. The compound further came in with a logP in data set [2] (logP) of -5.12. In addition, in data set [2] (pH 7.4, Log D (7.4)), the logD is -4.06. Moreover, in data set [3], the pIC50 was over 6.70.

`CC[C@H](C)[C@H](NC(C)=O)C(=O)N[C@@H](Cc1c[nH]cn1)C(=O)N[C@H](C(=O)N[C@H](C(=O)N[C@H](C(=O)N1CCC[C@H]1C(=O)N[C@@H](C)C(=O)N[C@@H](CC(=O)O)C(=O)N[C@@H](CC(C)C)C(=O)N[C@@H](Cc1c[nH]c2ccccc12)C(=O)N[C@@H](CC(=O)O)C(=O)N[C@@H](Cc1c[nH]c2ccccc12)C(=O)N[C@H](C(=O)N[C@@H](CCCNC(=N)N)C(=O)N[C@@H](CCCCN)C(N)=O)[C@@H](C)CC)[C@@H](C)CC)[C@@H](C)O)C(C)C` [SEQ ID NO: 9] (Ac-IHVTIPADLWDWIRK-NH2) yielded a solubility in data set [1] of over 10 mM. Besides, the “IP (isoelectric point)” value in data set [2] amounted to 8.28. This compound came in with a logP in data set [2] (logP) of -0.53. This compound showed a logD in data set [2] (pH 7.4, Log D (7.4)) of -1.08. In addition, the pIC50 in data set [3] was over 6.52.
